Laboratory results reported in patent US20250000979A1, “TRIPLET-TRIPLET ENERGY TRANSFER WITH LIGHT EXCITATION AT LONG WAVELENGTHS AND METHODS THEREOF” (priority 2023, published 2025).
“And” between values parts separate entries of the source, which are not always exact repeats. Identical values can stand only once. Marks after values point to notes of the source that are not given here.

What was measured:
[1] = Photolysis of BODIPY prodrugs in solution, analysed by HPLC; assay type: physicochemical
Procedure: BODIPY photocage was conjugated with the free drug molecules to form photoactivable prodrugs with photolabile linkages, including ester and carbamate. The light illumination was performed with a NIR lamp, of which the parameters were 100 mW/cm^2, 690 nm for 5 min, in a N2-saturated solution containing 0.1 equiv. of Os(bptpy)2^2+ and 1 equiv. of prodrugs. […] In addition, the photocage was conjugated with drug molecules with amine groups to produce prodrugs with photolabile carbamate bonds.
The photolysis efficiency of BODIPY prodrugs were compared in different conditions, including different excitation wavelengths (690 nm or 530 nm), different ratios of Os(bptpy)2^2+, and different oxygen contents. […] The solvent was 88% methanol mixed by 10% dichloromethane and 2% acetone. For the N2-saturated groups, after dissolving the molecules, the solution was degassed with a vacuum pump for 10 min followed by gentle N2 blowing. After light irradiation, the resulted mixtures were refilled to 100 μL with methanol to avoid the error caused by solvent evaporation. The resulted solution was loaded onto the sampler and analyzed by high-performance liquid chromatography. An elution method was used to separate free drug, BODIPY photocage and prodrug on the C18 column.

[2] = Photoreaction quantum yields and cross sections (HPLC, Reinecke's salt actinometry); assay type: physicochemical
Procedure: Quantum yields of the photoreactions (Φ) are defined as:
The number of reacted molecules (e.g., consumption of prodrugs or generation of free drugs) were determined by HPLC. The absorbed photon number was determined by Reinecke's salt actinometry at excitation wavelengths of 530 nm and 690 nm^35, 36. The power densities were 50 mW/cm^2 (530 nm) and 100 mW/cm^2 (690 nm).

[3] = In vivo biodistribution by IVIS fluorescence imaging; set-up: species or system BALB/c nude mice; conditions: intravenous, DiR 100 μg/kg, HeLa tumor-bearing mice
Text: The tumors and major organs were excised for ex vivo fluorescence imaging 24-h post injection. […] It should be noted that the prodrug can be selectively activated in tumors by NIR light while those nanoparticles in the normal tissues and organs will not be activated, which can alleviate the side effects of chemotherapy.
BALB/c nude mice (female, 4 weeks, 15-20 g) were obtained from the Experimental Animal Center of University with access to food and water ad libitum. The animal experiment and procedures were approved by the Committee on the Use of Live Animals in Teaching & Research (CULATR), The University of Hong Kong. (Protocol No. 4381-17).
HeLa tumor-bearing mice was obtained by subcutaneously injecting HeLa cells for tumor implantation. HeLa cancer cells were collected by cell culture and trypsin digestion. The cells were washed by PBS and resuspended in DMEM medium without serum, in which collagen and Matrigel were added. 2×10^6 cells were dispersed in 100 μL mixture, which was subcutaneously injected into the mice at underarm area. […]
The biodistribution of free drug or nanoparticles in the HeLa tumor-bearing mice was measured by an in vivo fluorescence imaging system. […] The in vivo fluorescence imaging was performed at 1, 2, 8 and 24 h post injection and anesthesia at each time point. […]

[4] = red-light irradiation (625 nm), platinum photosensitizer PtTPBP; ref 17 / US2021/0228719; cited from earlier work
[5] = Photophysical properties (UV-Vis absorption, emission, energy levels); assay type: physicochemical
Text: The absorption peak at about 492 nm is identified as the singlet metal-to-ligand charge transfer (^1MLCT) absorption, also termed as singlet-singlet (S-S) absorption. […] The two twistable bromophenyl groups of the bromophenyl terpyridine ligands extend the S-T absorption from 650 nm to 750 nm with increased absorption coefficient.
CombiFlash Rf chromatography instrument was purchased from Teledyne ISCO (Lincoln, USA) for chemical purification. Light sources used in this study were purchased from Yuanming Laser (Ningbo, China) and Mightex (CA, USA). The purity verification and photolysis study were conducted with a high-performance liquid chromatography (HPLC) system (Agilent technologies, 1260), attached with C-18 columns which were obtained from Agilent (Santa Clara, California, United States). Nuclear magnetic resonance (NMR) spectroscopy was collected by Bruker AVANCE III HD 500 spectrometer (MA, US). Fluorescence, phosphorescence and UV-vis spectra were collected by a SpectraMax M4 microplate reader (Molecular Devices, CA, US). The particle size and surface charge were recorded by a dynamic light scattering (DLS) device, Zetasizer Nano-ZS90 (Malvern instruments, UK). Transmission electron microscope (TEM) imaging was conducted on a Hitachi HT7700 TEM (Tokyo, Japan). ACEA NovoCyte Quanteon flow cytometer (ACEA Biosciences, CA, USA) was used for flow cytometry. In vivo and ex vivo imaging of the mice were conducted with an In Vivo Imaging System (PerkinElmer, USA). Devices for animal study like including balance and vernier caliper were kindly provided by The Centre for Comparative Medicine Research (CCMR), The University of Hong Kong.

[6] = in toluene, calculated by TD-DFT, referred to previous studies; cited from earlier work
[7] = Encapsulation efficiency and loading capacity of Os/BC NP (HPLC); assay type: physicochemical; conditions: component of Os/BC NP
Procedure: Flash nanoprecipitation method was used to fabricate the photosensitizer/prodrug-loading nanoparticles. […] Different formulations (Os NPs, BC NPs and Os/BC NPs) were then prepared with optimized ratios of components. Briefly, 224 μL of the mixed stock solution was added into 1.8 mL N2-saturated water under vortexing. The resulted solutions were added to dialysis bags (MW: 3400 Da) and dialyzed against 4 L of water for 24 h. The water out of dialysis bag was renewed every 8 h. The resulted solution of NPs was collected and filtrated with 220 nm filter. Finally, the NPs solutions were concentrated by ultrafiltration (Mw=100 kDa, 2000×g, 10 min) and stored at 4° C. until use. The concentrations of each component were measured by using HPLC. Loading capacity and encapsulation efficiency were calculated as follow: […]

[8] = 690 nm, 100 mW/cm^2, 5 min, 0.1 equiv. Os(bptpy)2^2+, N2-saturated solution
[9] = λex 690 nm, 0.1 eq Os, N2, ε of Os(bptpy)2·2PF6 at 688 nm

Row | Compound | photolytic yield (yield of free drug) [1, 8] | Quantum yield of drug release Φr ([2]; λex 690 nm, 0.1 eq Os, N2) | Quantum yield of prodrug photolysis Φp ([2]; λex 690 nm, 0.1 eq Os, N2) | Cross section Φpε(λex) [2, 9] | Cross section Φrε(λex) [2, 9] | other results
1 | CC1=C(I)C(C)=[N+]2C1=C(COC(=O)/C=C/c1cccc(OCc3ccccc3)c1)c1c(C)c(I)c(C)n1[B-]2(C)C [BODIPY-BCA, BODIPY-benzyloxycinnamic acid] | 87.12±3.17% | 0.75 ± 0.03% | 0.80 ± 0.02% | 213.33 ± 7.55 M⁻¹ cm⁻¹ | 200.64 ± 7.30 M⁻¹ cm⁻¹ | 
2 | CC1=C(I)C(C)=[N+]2C1=C(COC(=O)Cc1cccc3c(=O)c4ccc(C)c(C)c4oc13)c1c(C)c(I)c(C)n1[B-]2(C)C [BODIPY-DMXAA, BODIPY-vadimezan] | 82.52±7.22% | 0.71 ± 0.06% | 0.87 ± 0.01% | 230.30 ± 1.43 M⁻¹ cm⁻¹ | 190.05 ± 16.63 M⁻¹ cm⁻¹ | prodrug decomposition [1, 8]: completely consumed
3 | CC1=C(I)C(C)=[N+]2C1=C(COC(=O)NCCc1ccc(O)c(O)c1)c1c(C)c(I)c(C)n1[B-]2(C)C [BODIPY-DPA, BODIPY-dopamine] | 69.04±1.99% | 0.60 ± 0.02% | 0.86 ± 0.01% | 228.90 ± 3.59 M⁻¹ cm⁻¹ | 159.00 ± 4.58 M⁻¹ cm⁻¹ | 
4 | COc1ccc(CCNC(=O)OCC2=C3C(C)=C(I)C(C)=[N+]3[B-](C)(C)n3c(C)c(I)c(C)c32)cc1OC [BODIPY-HVA, BODIPY-homoveratrylamine] | 74.17±3.97% | 0.64 ± 0.03% | 0.85 ± 0.04% | 224.98 ± 9.83 M⁻¹ cm⁻¹ | 170.82 ± 9.14 M⁻¹ cm⁻¹ | 
5 | CC1=C(I)C(C)=[N+]2C1=C(COC(=O)C(C)c1ccc(CC(C)C)cc1)c1c(C)c(I)c(C)n1[B-]2(C)C (centres unmarked) [BODIPY-IBF, BODIPY-ibuprofen] | 48.49±4.69% | 0.42 ± 0.04% | 0.85 ± 0.04% | 226.34 ± 10.96 M⁻¹ cm⁻¹ | 111.67 ± 10.81 M⁻¹ cm⁻¹ | 
6 | COc1ccc2c(c1)c(CC(=O)OCC1=C3C(C)=C(I)C(C)=[N+]3[B-](C)(C)n3c(C)c(I)c(C)c31)c(C)n2C(=O)c1ccc(Cl)cc1 [BODIPY-IDM, BODIPY-indomethacin] | 68.95±4.69% | 0.60 ± 0.04% | 0.86 ± 0.02% | 229.15 ± 5.23 M⁻¹ cm⁻¹ | 158.79 ± 10.80 M⁻¹ cm⁻¹ | 
7 | CCCCN(C(=O)OCC1=C2C(C)=C(I)C(C)=[N+]2[B-](C)(C)n2c(C)c(I)c(C)c21)c1ccc(C(=O)OCCN(C)C)cc1 [BODIPY-TCI, BODIPY-tetracaine] | 41.34±4.61% | 0.36 ± 0.04% | 0.81 ± 0.06% | 215.84 ± 15.71 M⁻¹ cm⁻¹ | 95.21 ± 10.62 M⁻¹ cm⁻¹ | 
8 | CC1=C(I)C(C)=[N+]2C1=C(COC(=O)NCCc1ccc(O)cc1)c1c(C)c(I)c(C)n1[B-]2(C)C [BODIPY-TyrA, BODIPY-tyramine] | 46.57±2.37% | 0.40 ± 0.02% | 0.84 ± 0.02% | 223.12 ± 6.28 M⁻¹ cm⁻¹ | 107.25 ± 5.46 M⁻¹ cm⁻¹ | 
9 | CCCCCCCCCCCCCCCCCCN1C(=CC=CC=CC=CC2=[N+](CCCCCCCCCCCCCCCCCC)c3ccccc3C2(C)C)C(C)(C)c2ccccc21.[I-] [DiR, 1,1′-dioctadecyl-3,3,3′,3′-tetramethylindotricarbocyanine iodide] |  |  |  |  |  | time within which the free dye was completely metabolized [3]: ≤ 8 h
10 | BODIPY-chlorambucil [BODIPY-Cb] | 84.17±4.21% | 0.73 ± 0.04% | 0.84 ± 0.01% | 222.80 ± 2.90 M⁻¹ cm⁻¹ |  | max. yield of free Cb, one-photon upconversion-like photolysis [4]: 41.74%; photocleavage in air-saturated solution ([1]; 530 nm green light, air-saturated): retarded; decomposition of prodrug and generation of free Cb in air-saturated solution ([1]; 690 nm, with Os(bptpy)2^2+, air-saturated): mostly retarded; E (absorption coefficient at λabs, max) ([5]; at 543 nm): 89400 M⁻¹ cm⁻¹; λabs, max ([5]; dichloromethane solution with 2% acetone, 10 μM): 543 nm; λem, max ([5]; λex = 543 nm): 570^b nm; Energy level S1 state [6]: 2.18 eV and 2.18^f eV; Energy level T1 state [6]: 1.52 eV and 1.52^g eV; T1 lifetime [6]: 21.82^e μs; Cross section Φpε(λex) ([2]; λex 530 nm, Air): 2292.95 ± 730.79 M⁻¹ cm⁻¹; Cross section Φrε(λex) ([2]; λex 530 nm, Air): 171.63 ± 24.81 M⁻¹ cm⁻¹; Quantum yield of prodrug photolysis Φp ([2]; λex 530 nm, Air): 3.42 ± 1.09%; Cross section Φpε(λex) ([2]; λex 530 nm, N2): 16017.11 ± 2044.88 M⁻¹ cm⁻¹; Cross section Φrε(λex) ([2]; λex 530 nm, N2): 6016.62 ± 1895.28 M⁻¹ cm⁻¹; Quantum yield of drug release Φr ([2]; λex 530 nm, N2): 6.73 ± 2.12%; Quantum yield of prodrug photolysis Φp ([2]; λex 530 nm, N2): 23.89 ± 3.05%; Cross section Φpε(λex) ([2]; λex 690 nm, 0.1 eq Os, Air): 1.87 ± 1.11 M⁻¹ cm⁻¹; Cross section Φrε(λex) ([2]; λex 690 nm, 0.1 eq Os, Air): 0.49 ± 0.11 M⁻¹ cm⁻¹; Loading Capacity [7]: 0.27%
